# Measurements reported in patent EP4140481A1, “PROTEIN-OLIGOMER BINDING AGENTS AND THERAPEUTIC USES THEREOF” (Galyan Bio, Inc., priority 2021, dated 2023).
# “And” between values parts separate entries of the source, which are not always exact repeats. Equal entries are not always repeated.
# How the values were obtained:
# mHTT = target: T1, mHTT (Homo sapiens, UniProt P42858); assay: mHTT levels in striatal cells (immunocytochemistry); format: cell-based, mouse; details: for mHTT after 3 h heat shock and following 48 hours of compound treatment in comparison to untreated STHdh 111/111 / remaining activity at 10 µM: STHdh 111/111; for remaining activity at 10 µM: 3 hours heat shock, 48 hours treatment, percentage in comparison to untreated STHdh 111/111, 3B5H10 antibody, read-out: mHTT after treatment
# T1 construct: host or cells: ST HDH Q111/111 mouse striatal cell line (knock-in locus)
# Experimental: (§1) Staining - Cells were permeabilized with 0.3% Triton X-100 in 4 °C PBS (pH 7.4 from ThermoFisher) for 10 minutes. Then the cells were washed two times with 4 °C PBS. Subsequently, cells are blocked with 3% NGS (normal goat serum from Thermo Fisher) in 4 ° C PBS for 1 hour. Cells were incubated with primary antibodies in blocking buffer (PBS, 3% NGS, 0.02% NaN3) over night at 4 °C. Primary antibodies were mouse antipolyglutamine monoclonal antibody 3B5H10 (Sigma-Aldrich) at 1:250 dilution and Guinea Pig anti-MAP2 polyclonal antibody (Synaptic Systems) at 1:500 dilution. 3B5H10 binds to diffuse mHTT. Diffuse mHTT is a monomeric and small oligomeric mHTT. Diffuse mHTT is correlated to pathological parameters in Huntington's disease. Compounds that bind the mHTT will reduce the levels of diffuse mHTT detected.
# Cells were washed 2 times with 4 °C PBS, and then incubated with secondary antibodies at 1:2000 dilution in blocking buffer for 1hour at room temperature. […] Cells were washed 2 times with 4 °C PBS, and then the nuclei were counterstain with DAPI (ThermoFisher) for 10 min at room temperature in the dark. Cells were washed 2 times with 4 °C PBS, and then 4 °C PBS was added to cells and then images were acquired. […] Table 11: Antibodies Used in Immunocytochemistry Studies
# Fluorescence Imaging - Imaging sessions were performed on a confocal microscope system (Carl Zeiss Microscopy) equipped with a dual spinning disk unit (Yokogawa). All components of the imaging system were controlled via the ZEN 2 software suite (Carl Zeiss Microscopy). The laser lines used were 405 nm, 488 nm and 639 nm to excite DAPI or the respective fluorophores. […] Nested t test was performed to calculate the significance amongst repeated measurements using GraphPad Prism software.
# as §1, with “For LC3 staining primary antibodies were mouse anti-LC3 mab (5F10) (nanoTools) at 1:500 dilution” for “3B5H10 binds to diffuse mHTT. Diffuse mHTT is a monomeric”, “Guinea Pig anti-MAP2 polyclonal antibody (Synaptic Systems) at 1:500 dilution.” for “small oligomeric mHTT. Diffuse mHTT is correlated to pathological parameters in Huntington's disease. Compounds that bind the mHTT will reduce the levels of diffuse mHTT detected.”
# Cells were washed 2 times with 4 °C PBS, and then incubated with secondary antibodies at 1:2000 dilution in blocking buffer for 1hour at room temperature. […] Cells were washed 2 times with 4 °C PBS, and then the nuclei were counterstain with DAPI (ThermoFisher) for 10 min at room temperature in the dark. Cells were washed 2 times with 4 °C PBS, and then 4 °C PBS was added to cells and then images were acquired.
# EC 50 value was determined with non-linear regression.
# Thermodynamic solubility = format: physicochemical; details: thermodynamic from solid
# Exon1 Q46 = Exon1 Q46 (Homo sapiens, UniProt P42858, INS38QQQQQQQQQQQQQQQQQQQQQQQQQ); assay: Circular dichroism study; format: binding
# Experimental: Protein samples were diluted with buffer to 7.5 µM prior to Circular Dichroism (CD) measurements. Measurements were conducted at room temperature.
# Four spectra at each measurement were taken every 1 nm from 200 to 260 nm, scanning at 50 nm/min with an averaging time of 1 sec. Spectra were obtained from samples in 20 mM phosphate, pH 7.4. Ten scans were averaged for each sample spectrum
# Single-wavelength readings at 222 nm were obtained. After subtraction of the Trx contribution, the α-helical content of Httex1 was estimated from its mean residue ellipticity (MREHttex1) at 222 nm. This calculation was conducted as described by Bravo-Arredondo (Bravo-Arredondo, J.M. et al., J Biol Chem. 2018 Dec 21;293(51):19613-19623).
# MRE Exon-1 Q16 and Q46 (Mean Residue Ellipticity) was measured every 1 sec for 300 sec; the 301 readings for each sample were averaged and MRE Trx subtracted. The number of amino acids in each sample to experience a change in helicity was estimated using a previously developed helix-coil transition model, which gave the change in fraction of helicity (ΔfHelix) by the following equation: fHelix = (MREHttex1 −MRECoil)/(MREHelix −MRECoil) [formula] where MRE Exon1 Q26 or Q46 (MREHttex1 in the formula) describes the helix-coil transition, obtained from the difference between MRE Eon1 Q26 or Q46 at 222 nm of the fusion protein at the given temperature (in our case 37 °C) and the product of MRE Trx at 222 nm at the same temperature and the fraction of residues comprised by Trx in that particular construct, and MRECoil = 2220−53T,MREHelix =; (−44,000+250T)(1−(3)/(Nr)) [formula] given T as the temperature in °C and Nr as the number of residues.
# In order to calculate an equilibrium of the two states model, percent α-helicity was calculated using the relation of MREHttex1 = 0 and -34700 (deg cm^2 dmol^-1) for 0% and 100% helicity, respectively. Table 14: Comparison between Kd, reversal of conformational changes of Exon1 Q46 and reduction of mHTT in comparison to untreated striatal neurons
# The CD measurements protocol for Compound 101 was the same as outlined above except that from 206 nm - 210 nm and 220 nm - 224 nm, the step size was 0.2 nm, and the bandwidth was 1nm.
# Log D = format: physicochemical; details: pH 7.4; pH 7,4
# [1] = target: T2, Wild type (wt) α-Synuclein (Homo sapiens, UniProt P37840); assay: Dynamic Light Scattering (DLS), induced aggregation; format: biochemical
# T2 construct: purchased rPeptide, Watkinsville, Georgia S-1001-2
# wildtype huntingtin = target: T3, wildtype huntingtin (Mus musculus, UniProt P42859); assay: Wildtype huntingtin levels (immunofluorescence); format: cell-based; details: STHdh 7/7 in comparison to non-treated STHdh 7/7
# T3 construct: host or cells: ST HDH Q7/7 mouse striatal cell line
# Kinetic solubility = format: physicochemical; details: kinetic from dmso stock
# Exon1 Q46, sequence (P42858 with tags, fused parts or gaps with the stated changes): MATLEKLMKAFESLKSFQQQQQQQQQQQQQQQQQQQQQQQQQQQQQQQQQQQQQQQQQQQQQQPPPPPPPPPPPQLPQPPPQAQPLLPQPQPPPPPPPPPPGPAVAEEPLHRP
# T1 sequence (P42858 with tags, fused parts or gaps with the stated changes): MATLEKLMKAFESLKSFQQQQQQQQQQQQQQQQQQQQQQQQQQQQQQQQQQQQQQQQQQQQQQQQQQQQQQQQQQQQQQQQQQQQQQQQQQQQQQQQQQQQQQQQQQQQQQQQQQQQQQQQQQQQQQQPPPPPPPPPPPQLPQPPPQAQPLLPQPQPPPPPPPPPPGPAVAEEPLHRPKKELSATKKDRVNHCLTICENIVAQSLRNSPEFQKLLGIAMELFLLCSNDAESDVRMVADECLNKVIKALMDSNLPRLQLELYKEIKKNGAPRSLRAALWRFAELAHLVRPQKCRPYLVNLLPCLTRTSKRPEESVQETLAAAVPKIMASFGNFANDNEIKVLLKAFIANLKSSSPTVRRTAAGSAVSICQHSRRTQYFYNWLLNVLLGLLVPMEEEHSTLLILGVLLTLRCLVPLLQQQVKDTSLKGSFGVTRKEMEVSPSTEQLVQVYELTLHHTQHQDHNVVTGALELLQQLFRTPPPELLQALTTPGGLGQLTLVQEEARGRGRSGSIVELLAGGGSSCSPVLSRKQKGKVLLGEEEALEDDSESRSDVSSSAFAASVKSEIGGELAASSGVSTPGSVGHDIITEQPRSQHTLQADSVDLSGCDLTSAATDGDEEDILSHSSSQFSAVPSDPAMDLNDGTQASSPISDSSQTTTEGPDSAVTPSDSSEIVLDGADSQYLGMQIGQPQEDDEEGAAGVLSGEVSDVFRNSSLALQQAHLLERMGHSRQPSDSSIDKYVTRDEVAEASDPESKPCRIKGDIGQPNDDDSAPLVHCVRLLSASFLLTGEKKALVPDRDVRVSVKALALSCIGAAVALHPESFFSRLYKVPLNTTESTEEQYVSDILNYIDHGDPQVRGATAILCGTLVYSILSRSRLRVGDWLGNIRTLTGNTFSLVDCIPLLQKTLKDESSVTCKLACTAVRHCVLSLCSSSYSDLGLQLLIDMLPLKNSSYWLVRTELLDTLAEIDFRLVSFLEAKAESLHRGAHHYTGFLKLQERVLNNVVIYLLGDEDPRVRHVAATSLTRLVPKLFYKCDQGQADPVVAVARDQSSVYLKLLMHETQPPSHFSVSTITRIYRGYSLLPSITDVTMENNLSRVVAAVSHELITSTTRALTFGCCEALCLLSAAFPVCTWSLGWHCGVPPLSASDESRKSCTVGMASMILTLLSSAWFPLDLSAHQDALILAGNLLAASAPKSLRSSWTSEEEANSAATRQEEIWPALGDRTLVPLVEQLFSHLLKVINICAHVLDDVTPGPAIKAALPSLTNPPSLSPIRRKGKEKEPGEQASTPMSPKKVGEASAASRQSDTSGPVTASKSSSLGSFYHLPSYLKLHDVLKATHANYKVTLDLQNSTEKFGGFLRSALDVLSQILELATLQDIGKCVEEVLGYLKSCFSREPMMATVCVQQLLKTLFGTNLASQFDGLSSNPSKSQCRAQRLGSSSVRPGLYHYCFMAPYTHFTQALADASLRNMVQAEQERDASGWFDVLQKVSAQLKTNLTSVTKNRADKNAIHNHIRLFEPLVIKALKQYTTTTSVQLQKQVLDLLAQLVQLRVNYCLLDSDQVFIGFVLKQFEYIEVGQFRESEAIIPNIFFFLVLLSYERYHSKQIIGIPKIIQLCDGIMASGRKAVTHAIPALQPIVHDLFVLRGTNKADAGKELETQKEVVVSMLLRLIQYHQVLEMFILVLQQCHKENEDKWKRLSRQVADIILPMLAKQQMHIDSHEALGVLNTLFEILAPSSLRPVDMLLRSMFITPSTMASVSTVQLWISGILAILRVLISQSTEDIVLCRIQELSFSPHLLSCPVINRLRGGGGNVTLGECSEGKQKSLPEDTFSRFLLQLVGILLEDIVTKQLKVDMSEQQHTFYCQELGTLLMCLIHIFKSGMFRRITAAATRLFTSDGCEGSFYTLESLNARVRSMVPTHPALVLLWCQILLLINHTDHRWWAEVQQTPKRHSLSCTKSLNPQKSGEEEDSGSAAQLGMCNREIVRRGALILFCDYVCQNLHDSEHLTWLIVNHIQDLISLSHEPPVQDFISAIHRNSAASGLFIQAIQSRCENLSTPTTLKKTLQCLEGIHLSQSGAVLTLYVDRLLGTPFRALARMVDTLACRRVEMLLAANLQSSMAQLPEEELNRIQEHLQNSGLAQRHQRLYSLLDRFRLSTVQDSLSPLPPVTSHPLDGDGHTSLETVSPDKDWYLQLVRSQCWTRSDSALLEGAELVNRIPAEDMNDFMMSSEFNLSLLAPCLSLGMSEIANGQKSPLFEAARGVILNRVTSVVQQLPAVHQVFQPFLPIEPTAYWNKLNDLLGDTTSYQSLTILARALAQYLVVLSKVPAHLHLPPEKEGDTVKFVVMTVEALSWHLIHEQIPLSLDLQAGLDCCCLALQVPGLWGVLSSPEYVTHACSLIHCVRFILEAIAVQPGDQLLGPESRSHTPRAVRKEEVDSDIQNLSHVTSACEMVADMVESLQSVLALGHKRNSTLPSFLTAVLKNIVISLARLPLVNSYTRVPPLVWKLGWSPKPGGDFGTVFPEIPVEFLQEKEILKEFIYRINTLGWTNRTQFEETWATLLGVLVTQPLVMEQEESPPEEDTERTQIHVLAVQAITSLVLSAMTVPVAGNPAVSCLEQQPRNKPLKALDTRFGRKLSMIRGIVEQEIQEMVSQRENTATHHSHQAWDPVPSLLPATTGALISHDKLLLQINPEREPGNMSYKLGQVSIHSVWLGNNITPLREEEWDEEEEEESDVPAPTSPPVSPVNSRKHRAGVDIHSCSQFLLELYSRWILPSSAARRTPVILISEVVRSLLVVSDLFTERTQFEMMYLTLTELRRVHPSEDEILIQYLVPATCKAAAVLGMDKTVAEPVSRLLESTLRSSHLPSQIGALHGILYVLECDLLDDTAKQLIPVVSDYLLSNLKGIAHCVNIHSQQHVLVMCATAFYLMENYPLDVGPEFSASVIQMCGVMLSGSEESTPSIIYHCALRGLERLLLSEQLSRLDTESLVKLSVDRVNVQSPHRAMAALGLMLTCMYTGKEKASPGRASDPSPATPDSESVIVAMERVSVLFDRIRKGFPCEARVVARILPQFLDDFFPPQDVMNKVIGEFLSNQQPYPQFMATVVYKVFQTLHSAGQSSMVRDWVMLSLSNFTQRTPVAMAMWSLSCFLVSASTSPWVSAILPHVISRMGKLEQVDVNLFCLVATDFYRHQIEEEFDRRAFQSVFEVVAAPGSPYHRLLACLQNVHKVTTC
Compound,mHTT after 3 h heat shock and following 48 hours of compound treatment in comparison to untreated STHdh 111/111 (mHTT) [%],remaining activity at 10 µM (mHTT) [%],solubility thermodynamic (Thermodynamic solubility) [µM],Kd (Exon1 Q46; Exon1 Q46) [µM],Kd (Exon1 Q46; Exon1 Q46 protein) [µM],logD (Log D),wildtype huntingtin level (wildtype huntingtin),solubility kinetic (Kinetic solubility) [µM],further results
"CCc1c(C)[nH]c2ccc(C(=O)NCCN(CC)CC)cc12 [Compound 4, N-(2-(diethylamino)ethyl)-3-ethyl-2-methyl-1H-indole-5-carboxamide]",34,34,5100,0.06,0.06,2.02,not reduced,328,"Diffuse mHTT reduction (mHTT; STHdh 111/111 in comparison to untreated cells, p < 0.0001): 68%; Fraction Helix fH (Exon1 Q46; Exon1 Q46, conc. Compound 0.01 µM): 22.4%; Fraction Helix fH (Exon1 Q46; Exon1 Q46, conc. Compound 0.059 µM): 20.9%; Fraction Helix fH (Exon1 Q46; Exon1 Q46, conc. Compound 0.158 µM): 21.1%; Fraction Helix fH (Exon1 Q46; Exon1 Q46, conc. Compound 0.647 µM): 20.0%; Fraction Helix fH (Exon1 Q46; Exon1 Q46, conc. Compound 1.62 µM): 19.5%; Fraction Helix fH (Exon1 Q46; Exon1 Q46, conc. Compound 4.04 µM): 19.3%; Fraction Helix fH (Exon1 Q46; Exon1 Q46, conc. Compound 13.68 µM): 18.3%; Fraction Helix fH (Exon1 Q46; Exon1 Q46, conc. Compound 37.77 µM): 18.1%; oligomerization of wt α-Synuclein ([1]; Compound 4 solved in methanol): does not oligomerize; % Volume, Peak 1 ([1]; by volume, 70 µM equimolar Compound 4 solved in methanol): 99,4%"
Cc1[nH]c2ccc(C(=O)NCCN(C(C)C)C(C)C)cc2c1C [Compound 22],46,46,2100,0.7,0.701,1.21,not reduced,188,"mHTT lowering with autophagy inhibitor (mHTT; STHdh 111/111 exposed to 10 mM NH4Cl): blocked the mHTT lowering effects of Compound 22 completely; Nuclear diffuse mHTT reduction (mHTT; STHdh 111/111 in comparison to untreated cells, p = 0.02): 32%; proportion of a predominantly α-helical state of Exon1 Q46 after treatment (Exon1 Q46; 2 µM): 21.4%; Reduction of the proportion of a predominantly α-helical state to wildtype levels (Exon1 Q46; 2 µM compound exposure): 36.7% and 36.6%"
